Laboratory results as given in the NIST ThermoML archive (doi:10.1021/je900188m).
Numbers after ± are expanded uncertainties.

Key:
[1] = 101 kPa, Liquid; for viscosity: Capillary tube (Ostwald / Ubbelohde) method; for mass density: Vibrating tube method
[2] = xn = mol fraction of the nth substance listed; details: 101 kPa, Liquid; for viscosity: Capillary tube (Ostwald / Ubbelohde) method; for mass density: Vibrating tube method

Compound: NCCO [2-aminoethan-1-ol]
- viscosity ([1]; 298.15 K): 19.9 ± 0.28 mPa·s
- mass density ([1]; 298.15 K): 1012 ± 1 kg/m3
- viscosity ([1]; 313.15 K): 9.61 ± 0.23 mPa·s
- mass density ([1]; 313.15 K): 1000 ± 1 kg/m3
- viscosity ([1]; 323.15 K): 6.72 ± 0.21 mPa·s
- mass density ([1]; 323.15 K): 992 ± 1 kg/m3
- viscosity ([1]; 343.15 K): 3.69 ± 0.2 mPa·s
- mass density ([1]; 343.15 K): 976 ± 1 kg/m3
- viscosity ([1]; 353.15 K): 2.85 ± 0.2 mPa·s
- mass density ([1]; 353.15 K): 968 ± 1 kg/m3

Compound: NCCO [2-aminoethan-1-ol] + O
- viscosity ([2]; 298.15 K, x1 = 0.06867): 1.7 ± 0.2 mPa·s
- viscosity ([2]; 298.15 K, x1 = 0.1122): 2.48 ± 0.21 mPa·s
- viscosity ([2]; 298.15 K, x1 = 0.1643): 3.58 ± 0.22 mPa·s
- viscosity ([2]; 298.15 K, x1 = 0.2278): 5.51 ± 0.23 mPa·s
- viscosity ([2]; 298.15 K, x1 = 0.4076): 12.46 ± 0.29 mPa·s
- viscosity ([2]; 298.15 K, x1 = 0.7264): 19.4 ± 0.3 mPa·s
- mass density ([2]; 298.15 K, x1 = 0.06867): 1005 ± 5 kg/m3
- mass density ([2]; 298.15 K, x1 = 0.1122): 1011 ± 4 kg/m3
- mass density ([2]; 298.15 K, x1 = 0.1643): 1016 ± 4 kg/m3
- mass density ([2]; 298.15 K, x1 = 0.2278): 1021 ± 4 kg/m3
- mass density ([2]; 298.15 K, x1 = 0.4076): 1026 ± 2 kg/m3
- mass density ([2]; 298.15 K, x1 = 0.7264): 1020 ± 1 kg/m3
- viscosity ([2]; 313.15 K, x1 = 0.06867): 1.18 ± 0.2 mPa·s
- viscosity ([2]; 313.15 K, x1 = 0.1122): 1.67 ± 0.2 mPa·s
- viscosity ([2]; 313.15 K, x1 = 0.1643): 2.28 ± 0.21 mPa·s
- viscosity ([2]; 313.15 K, x1 = 0.2278): 3.39 ± 0.21 mPa·s
- viscosity ([2]; 313.15 K, x1 = 0.4076): 6.96 ± 0.24 mPa·s
- viscosity ([2]; 313.15 K, x1 = 0.7264): 10.2 ± 0.24 mPa·s
- mass density ([2]; 313.15 K, x1 = 0.06867): 999 ± 5 kg/m3
- mass density ([2]; 313.15 K, x1 = 0.1122): 1003 ± 4 kg/m3
- mass density ([2]; 313.15 K, x1 = 0.1643): 1008 ± 4 kg/m3
- mass density ([2]; 313.15 K, x1 = 0.2278): 1012 ± 3 kg/m3
- mass density ([2]; 313.15 K, x1 = 0.4076): 1016 ± 2 kg/m3
- mass density ([2]; 313.15 K, x1 = 0.7264): 1008 ± 1 kg/m3
- viscosity ([2]; 323.15 K, x1 = 0.06867): 0.95 ± 0.2 mPa·s
- viscosity ([2]; 323.15 K, x1 = 0.1122): 1.33 ± 0.2 mPa·s
- viscosity ([2]; 323.15 K, x1 = 0.1643): 1.75 ± 0.2 mPa·s
- viscosity ([2]; 323.15 K, x1 = 0.2278): 2.54 ± 0.21 mPa·s
- viscosity ([2]; 323.15 K, x1 = 0.4076): 4.94 ± 0.22 mPa·s
- viscosity ([2]; 323.15 K, x1 = 0.7264): 7.06 ± 0.22 mPa·s
- mass density ([2]; 323.15 K, x1 = 0.06867): 994 ± 5 kg/m3
- mass density ([2]; 323.15 K, x1 = 0.1122): 998 ± 4 kg/m3
- mass density ([2]; 323.15 K, x1 = 0.1643): 1002 ± 4 kg/m3
- mass density ([2]; 323.15 K, x1 = 0.2278): 1005 ± 3 kg/m3
- mass density ([2]; 323.15 K, x1 = 0.4076): 1008 ± 2 kg/m3
- mass density ([2]; 323.15 K, x1 = 0.7264): 1001 ± 1 kg/m3
- viscosity ([2]; 343.15 K, x1 = 0.06867): 0.67 ± 0.2 mPa·s
- viscosity ([2]; 343.15 K, x1 = 0.1122): 0.92 ± 0.2 mPa·s
- viscosity ([2]; 343.15 K, x1 = 0.1643): 1.14 ± 0.2 mPa·s
- viscosity ([2]; 343.15 K, x1 = 0.2278): 1.57 ± 0.2 mPa·s
- viscosity ([2]; 343.15 K, x1 = 0.4076): 2.79 ± 0.21 mPa·s
- viscosity ([2]; 343.15 K, x1 = 0.7264): 3.81 ± 0.21 mPa·s
- mass density ([2]; 343.15 K, x1 = 0.06867): 983 ± 5 kg/m3
- mass density ([2]; 343.15 K, x1 = 0.1122): 986 ± 4 kg/m3
- mass density ([2]; 343.15 K, x1 = 0.1643): 989 ± 4 kg/m3
- mass density ([2]; 343.15 K, x1 = 0.2278): 992 ± 3 kg/m3
- mass density ([2]; 343.15 K, x1 = 0.4076): 993 ± 2 kg/m3
- mass density ([2]; 343.15 K, x1 = 0.7264): 985 ± 1 kg/m3
- viscosity ([2]; 353.15 K, x1 = 0.06867): 0.58 ± 0.2 mPa·s
- viscosity ([2]; 353.15 K, x1 = 0.1122): 0.77 ± 0.2 mPa·s
- viscosity ([2]; 353.15 K, x1 = 0.1643): 0.95 ± 0.2 mPa·s
- viscosity ([2]; 353.15 K, x1 = 0.2278): 1.28 ± 0.2 mPa·s
- viscosity ([2]; 353.15 K, x1 = 0.4076): 2.18 ± 0.2 mPa·s
- viscosity ([2]; 353.15 K, x1 = 0.7264): 2.93 ± 0.2 mPa·s
- mass density ([2]; 353.15 K, x1 = 0.06867): 977 ± 5 kg/m3
- mass density ([2]; 353.15 K, x1 = 0.1122): 979 ± 4 kg/m3
- mass density ([2]; 353.15 K, x1 = 0.1643): 982 ± 4 kg/m3
- mass density ([2]; 353.15 K, x1 = 0.2278): 984 ± 3 kg/m3
- mass density ([2]; 353.15 K, x1 = 0.4076): 985 ± 2 kg/m3
- mass density ([2]; 353.15 K, x1 = 0.7264): 976 ± 1 kg/m3
